“Also recorded” adds a separate entry of the source. Marks after values point to notes of the source that are not given here.
Assays:
[1] = tested on: Aβ oligomers; conditions: added pre-cond, positive control, previously shown; cited from earlier work
[2] = tested on: TgCRND8 mice; test: Cerebral amyloid plaque burden (anti-Aβ immunostaining, image analysis); type: in vivo, mouse; conditions: for Mean Plaque Size / Total Plaque Area / Total Plaque Count: oral, 28 days from 5 months of age, 6 months of age
Experimental: (§1) Mice. […] This initial dosage was chosen based upon the dosage of myo-cyclohexanehexyl (6-18 grams/day/adult or 86-257 mg/Kg/day) that is typically administered to human patients for various psychiatric disorders. […] A cohort of animals (n=10 mice per treatment arm) entered the study at five months of age, and outcomes were then analyzed after one month of treatment. The body weight, coat characteristics and in cage behaviour were monitored. Mannitol was used as a negative control for potential alterations in caloric intake. All experiments were performed according to the Canadian Council on Animal Care guidelines. Behavioural tests: Morris Water Maze testing was performed as previously described. After non-spatial pre-training, mice underwent place discrimination training for 5 days with 4-trials per day, followed by a cued visible platform to rule out general motivational, learning deficits and motor problems, and a probe trial to evaluate memory. […] Open field test for motor activity was preformed as described previously. Duration of walking, pausing and grooming were analyzed as indices of spontaneous locomotor activity. Sensorimotor function was examined with an Economex™ accelerating rotarod (Columbus Instruments, Columbus, Ohio), as described elsewhere. The rod was set to accelerate at a rate of 0.2 r.p.m./s, from an initial, constant speed of 5 r.p.m. Latency to fall was recorded in four daily trials, conducted at 30 min intervals. All mice were trained for seven days before testing. The test day performance score for each animal was obtained by summing its latency to fall over the four trials. Cerebral amyloid burden. Brains were removed and one hemisphere was fixed in 4% paraformaldehyde and embedded in paraffin wax in the mid sagittal plane. To generate sets of systematic uniform random sections, 5 μm serial sections were collected across the entire hemisphere. Sets of sections at 50 μm intervals were used for analyses (10-14 sections/set). Plaques were identified after antigen retrieval with formic acid, and incubation with primary anti-AD antibody (Dako M-0872), followed by secondary antibody (Dako StreptABCcomplex/horseradish kit). End products were visualized with DAB and were counter-stained with luxol fast blue. Amyloid plaque burden was assessed with Leco IA-3001 image analysis software interfaced with Leica microscope and Hitachi KP-M1U CCD video camera. Openlab imaging software (Improvision, Lexington, Mass.) was then used to convert micrographs to binary images for plaque number and plaque area determinations. Vascular amyloid burden was defined as amyloid originating from or surrounding blood vessels and was analysed similarly. Plasma and Cerebral Aβ Content. Hemi-brain samples were homogenized in a buffered sucrose solution, followed by either 0.4% diethylamine/100 mM NaCl for soluble Aβ levels or cold formic acid for the isolation of total Aβ. After neutralization, the samples were diluted and analyzed for Aβ40 and Aβ42 using commercially available kits (BIOSOURCE International). Each hemisphere was analyzed intriplicate and the mean values ±SEM reported. Western blot analyses were performed on all fractions using urea gels for Aβ species analyses. Aβ was detected using 6E10 (BIOSOURCE International) and Enhanced Chemiluminenscence (Amersham). Gliosis Quantitation. Five randomly selected, evenly spaced, sagittal sections were collected from paraformaldehyde-fixed and frozen hemispheres of treated and control mice. Sections were immunolabelled for astrocytes with anti-rat GFAP IgG2a, (Dako; diluted 1:50) and for microglia with anti-rat CD68 IgG2b (Dako; 1:50).

[3] = molecular target: T1, Aβ42 (Homo sapiens, UniProt P05067); test: Plasma Aβ42 levels; type: in vivo, mouse; conditions: TgCRND8 mice, 28 days of therapy at five months of age
T1 construct: analyzed for Aβ40 and Aβ42 using commercially available kits; from tissue; host or cells: TgCRND8 transgenic mice: hemi-brain (A3) and plasma (A5)
Experimental: (§2) Mice. […] This initial dosage was chosen based upon the dosage of myo-cyclohexanehexyl (6-18 grams/day/adult or 86-257 mg/Kg/day) that is typically administered to human patients for various psychiatric disorders. […] A cohort of animals (n=10 mice per treatment arm) entered the study at five months of age, and outcomes were then analyzed after one month of treatment. The body weight, coat characteristics and in cage behaviour were monitored. Mannitol was used as a negative control for potential alterations in caloric intake. All experiments were performed according to the Canadian Council on Animal Care guidelines. Behavioural tests: Morris Water Maze testing was performed as previously described. […] Duration of walking, pausing and grooming were analyzed as indices of spontaneous locomotor activity. […] Latency to fall was recorded in four daily trials, conducted at 30 min intervals. […] Amyloid plaque burden was assessed with Leco IA-3001 image analysis software interfaced with Leica microscope and Hitachi KP-M1U CCD video camera. […] Vascular amyloid burden was defined as amyloid originating from or surrounding blood vessels and was analysed similarly. […] After neutralization, the samples were diluted and analyzed for Aβ40 and Aβ42 using commercially available kits (BIOSOURCE International). Each hemisphere was analyzed intriplicate and the mean values ±SEM reported. […] Gliosis Quantitation. […]

[4] = tested on: TgCRND8 mice; test: Morris Water Maze spatial reference memory test in TgCRND8 mice; type: in vivo, mouse; conditions: for spatial learning performance compared to non-Tg littermates / spatial learning performance compared to untreated TgCRND8 littermates: six month old TgCRND8 mice, 28 days treatment from 5 months
Experimental: as §1, with “Sections were immunolabelled for astrocytes with anti-rat GFAP IgG2a, (Dako; diluted 1:50) and for microglia with anti-rat CD68 IgG2b (Dako; 1:50).” left out

[5] = molecular target: T2, Aβ (Homo sapiens, UniProt P05067); conditions: cited from earlier work
T2 construct: Inositol stereoisomers stabilize an oligomeric aggregate of Alzheimer amyloid beta peptide

[6] = 6-18 grams/day/adult or 86-257 mg/Kg/day; cited from earlier work
[7] = Pilot in vivo studies with myo-cyclohexanehexyl; conditions: data not shown
From the text: The TgCRND8 mice and non-transgenic littermates were assigned to sex- and age-matched cohorts that were then used to test the effectiveness of the cyclohexanehexyl stereoisomers as a therapeutic (with treatment delayed until five months of age and continued for one month until six months of age). […] The endpoints were cognitive function, brain Aβ levels, and neuropathology. […] Over the course of these experiments, observers were unaware of genotype or treatment group.

[8] = tested on: TgCRND8 mice; conditions: mouse, in vivo
Experimental: as §2

[9] = tested on: rats; test: Alternating Lever Cyclic Ratio (ALCR) test after ICV Aβ oligomers; type: in vivo, rat
Experimental: The Aβ oligomers are naturally produced by cells transfected with genes that over-produce the amyloid precursor protein (APP). […] In addition, oligomeric Aβ is extracted from brain homogenate taken from transgenic mice (Tg2576) transfected with the Swedish APP mutation. […] These purified oligomeric forms of Aβ, at physiological concentrations relevant to those found in AD, are injected into the rat's lateral ventricle through an indwelling cannula while the animals are awake and moving. Two hours after injection the rats are tested under sensitive cognitive assay. The assay, the Alternating Lever Cyclic Ratio (ALCR) test, has proven to be much more sensitive than previously published methods for measuring drug effects on cognitive function. In this task, rats must learn a complex sequence of lever-pressing requirements in order to earn food reinforcement in a two-lever experimental chamber. Subjects must alternate between two levers by switching to the other lever after pressing the first lever enough to get food reward. The exact number of presses required for each food reward changes, first increasing from 2 responses per food pellet up to 56 presses per food pellet, then decreasing back to 2 responses per pellet. Intermediate values are based on the quadratic function, x^2−x. One cycle is an entire ascending and descending sequence of these lever press requirements (e.g., 2, 6, 12, 20, 30, 42, 56, 56, 42, 30, 20, 12, 6, and 2 presses per food reward). Six such full cycles are presented during each daily session. […] Oligomeric Aβ: […] These cells secrete oligomeric Aβ into the culture medium (CM) at physiological levels. Aβ oligomers was also derived from Tg2576 mouse brain and purified by size exclusion chromatography. Samples of oligomeric Aβ were characterized by Western Blot Analysis. Appropriate control compounds were produced and tested for each active Aβ oligomeric configuration. Rats: Forty (40) rats were trained under ALCR for approximately 3 months until their error rates are stable. Training sessions were conducted 5 days each week. Surgery: After training, all rats received a single 28 ga. cannula that was permanently affixed to the skull, and aimed at the lateral ventricle (divided equally between left and right). Rats were allowed 5 days to recover from surgery. Administration: In vivo administration of AZD103 to rats was performed by dissolving AZD103 into drinking water. Different concentrations were prepared, and the average daily water intake used to target specific average daily dose levels. These dose levels were therefore approximate. Testing: AZD 103 was tested against Aβ oligomers known to disrupt cognitive function. […] AZD 103 was incubated with the injectate medium containing Aβ oligomers prior to assessing it's affect on ALCR. […] Treatments were assessed in the following order: • 1. […] ICV AZD 103 alone • 3. […] Error Rate Analysis: All error rates under AZD 103 were compared to baseline error rates consisting of at least 3-4 non-treatment days prior to injections. This is a repeated measure within subject design that produces maximum power to detect changes in the error rates. Histology: Upon completion of the study, 20 rat brains were banked. The other 20 brains were evaluated histologically for inflammation, gliosis and cannula placement. […] Serial hematoxylin and eosin stained sections were used to evaluate for cannula placement. These same hemibrains were evaluated for inflammation (neutrophils/lymphocytes/macrophages), gliosis (microglial and astrocytic) and neuron loss using standard hematoxylin and eosin staining as well as specific markers for gliosis as needed.

[10] = tested on: TgCRND8 mice; test: Two-month treatment of TgCRND8 mice, cognition and pathology; type: in vivo, mouse; conditions: TgCRND8 mice treated for 2 months, ending at 7 months of age
Experimental: Scyllo-inositol was also administered to […]8 mice for 2 months, ending at 7 months of age.

[11] = tested on: 7PA2 cells; test: Toxicity observations in 7PA2 cells and LTP controls; type: cell-based, Chinese Hamster; conditions: APPs expression, LTP in CHO-/AZD-103 conditions
Experimental: (§3) Preparation of conditioned media: CHO— or 7PA2 cells were grown to ˜90% confluency. The cells were washed 1× in serum-free DMEM, then incubated overnight (˜15 hrs) in 4 ml/10 cm dish in serum-free DMEM, pen/strep, 1-glutamine with/without AZD-103. The following day, the conditioned media (CM) was collected, spun at 1000×g and treated with complete protease inhibitors (in mg/ml 1 leupeptin, 1 pepstatin, 0.1 aprotinin, 40 EDTA, and 2 mM 1/10 phenantroline) for biochemistry experiments or cell culture compatible protease inhibitors (Sigma P1860 1:1000) for electrophysiology experiments. The CM was stored at −80° C. until sufficient volumes were collected to complete a “batch”—typically ˜300 ml. […] The resulting concentrate was pooled, aliquoted in 1 ml fractions, and stored at −80° C. […] Therefore, for any given set of experiments (i.e. dose response curve, time curve, etc), a single batch is prepared and compared to 7PA2 alone within that batch.

[12] = tested on: Aβ oligomers; test: IP/Western blot of Aβ oligomers in 7PA2 conditioned medium; type: cell-based, human
Experimental: as §3
IP/Western blots: 8 ml of 7PA2 CM were precleared with 40 μl of protein A agarose for 30 min. The beads were spun down, and […] of the polyclonal anti-Aβ antibody R1282 was added to the supernatant with an additional 40 μl of protein A agarose. These samples were nutated at 4° C. overnight. The beads were washed with a series of buffers 0.5 STEN (sodium chloride, tris, EDTA, NP-40), SDS STEN, STEN. 2× tricine sample buffer was added to the washed beads, which were then boiled, centrifuged, and the resulting supernatant loaded onto 10-20% tricine gels. The proteins were then transferred to nitrocellulose, and probed with the anti-Aβ antibody 6E10.

[13] = TgCRND8 mice, listed as Epi-cyclohexanehexol
[14] = TgCRND8 mice, 28 day course at 5 months of age, vs untreated
[15] = TgCRND8 mice, listed as Scyllo-cyclohexanehexol

T1 sequence (P05067 672-713): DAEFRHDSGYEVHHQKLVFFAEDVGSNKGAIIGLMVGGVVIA
T2 sequence (P05067 672-713 limits assumed): as the sequence (P05067 672-713) above

Oc1cccc(Nc2ccc(Nc3cccc(O)c3)nn2)c1 [RS0406]
production of Aβ oligomers [1]: reduces the production of oligomers

OC1C(O)C(O)C(O)C(O)C1O (stereo not drawn) [epi-cyclohexanehexyl, 1,2,3,4,5/6-(epi-) cyclohexanehexyl, reference compound]
impact on brain Aβ40 or Aβ42 levels, percent area of the brain covered with plaques, or plaque number ([2]; TgCRND8 mice with pre-existing disease, 28 days): no significant impact | Mean Plaque Size [2, 13]: 346 ± 6 μm^2 | Total Plaque Area [2, 13]: 459706 ± 49966 μm^2 | Total Plaque Count [2, 13]: 1342 ± 114 | Plasma Aβ42 levels [3]: 1079 ± 79 pg/mL | spatial learning performance compared to non-Tg littermates [4]: significantly poorer than the performance of their non-Tg littermates; also recorded: remained impaired with respect to non-Tg littermates | spatial learning performance compared to untreated TgCRND8 littermates [4]: not significantly different from that of untreated TgCRND8 littermates

O[C@H]1[C@H](O)[C@@H](O)[C@H](O)[C@@H](O)[C@H]1O [myo-cyclohexanehexyl, 1,2,3,5/4,6-(myo-) cyclohexanehexyl]
effectiveness in prior in vitro studies [5]: only weakly effective | toxicity in humans or animals [6]: no toxicity | benefit in pilot in vivo studies [7]: no significant benefit

OC1C(O)C(O)C(O)C(O)C1O (centres unmarked) [scyllo-cyclohexanehexyl, 1,3,5/2,4,6-(scyllo-) cyclohexanehexyl]
grooming or activity in the open field test [8]: no effect on grooming or activity | sensorimotor function, Rotarod [8]: no difference | impact on ALCR performance without oligomers ([9]; AZD103 administered without oligomers): no impact on performance | Switching % errors ([9]; ICV AZD103 alone, baseline = 100): 99% | Switching % errors ([9]; ICV Aβ oligomers incubated ex vivo with AZD103, baseline = 100): 95% | Switching % errors ([9]; ICV oligomers after 4 days PO 30 mg/kg/day in drinking water): 109% | Switching % errors ([9]; ICV oligomers after 4 days PO 100 mg/kg/day in drinking water): 100% | Switching % errors ([9]; ICV oligomers after 4 days PO 300 mg/kg/day in drinking water): 109% | effects on cognition and pathology [10]: Sustained effects both on cognition and pathology were observed | percent area of the brain covered by plaques, reduction [2, 14]: 14±0.5% | plaque number reduction [2, 14]: 13±0.3% | plaque size reduction [2, 14]: 16±0.4% | plaque burden in the hippocampus ([2]; TgCRND8 mice, one month of treatment, anti-Aβ antibody staining): lower plaque burden | Mean Plaque Size [2, 15]: 336 ± 6* μm^2 | Total Plaque Area [2, 15]: 420027 ± 14986* μm^2 | Total Plaque Count [2, 15]: 1260 ± 27 | Plasma Aβ42 levels [3]: 990 ± 73 pg/mL | toxicity [11]: No direct evidence of AZD-103 toxicity | probe trial, % time in target quadrant ([4]; separate cohort of treated TgCRND8 mice vs non-Tg littermates): not statistically different from non-Tg littermates | spatial learning performance compared to non-Tg littermates [4]: indistinguishable from that of their non-Tg littermates | spatial learning performance compared to untreated TgCRND8 littermates [4]: significantly better behavioural performance compared to untreated TgCRND8 mice; also recorded: significantly better than untreated TgCRND8 littermates | Aβ dimer on Western blots ([12]; applied to 7PA2 CM (post-cond)): seemed unaffected | Aβ trimer on Western blots ([12]; applied to 7PA2 CM (post-cond), 1.25 μM): reduced the detectability of the Aβ trimer | Aβ dimer and trimer levels, dose response by Western blot ([12]; pre-cond and post-cond, measured absolutely and normalized to monomer): appeared to reduce dimer and trimer levels
